In ChEMBL document CHEMBL5257031, “Drug-like Antagonists of P2Y Receptors-From Lead Identification to Drug Development” (J Med Chem, 2016):

Columns and labels:
[1] = Volume of distribution at steady state in rat; type: ADME; conditions: in vivo
[2] = Clearance in rat; type: ADME; conditions: in vivo
[3] = Antagonist activity at human pA2 by FLIPR assay
[4] = Oral bioavailability in mouse; conditions: in vivo
[5] = Antagonist activity at human P2Y12 by aggregation assay
[6] = molecular target: T1, P2Y purinoceptor 1 (Homo sapiens, UniProt P47900); assay: Agonist activity at human P2Y1
[7] = Volume of distribution at steady state in rat at 30 mg/kg, PO; type: ADME, organism-based; conditions: in vivo
[8] = Half life in rat 1 mg/kg, iv; type: ADME, organism-based; conditions: in vivo
[9] = Half life in rat 30 mg/kg, po; type: ADME, organism-based; conditions: in vivo
[10] = Clearance in rat at 30 mg/kg, po; type: ADME, organism-based; conditions: in vivo
[11] = molecular target: T2, P2Y purinoceptor 13 (Homo sapiens, UniProt Q9BPV8); assay: Antagonist activity at human P2Y13
T2 sequence (Q9BPV8 whole entry): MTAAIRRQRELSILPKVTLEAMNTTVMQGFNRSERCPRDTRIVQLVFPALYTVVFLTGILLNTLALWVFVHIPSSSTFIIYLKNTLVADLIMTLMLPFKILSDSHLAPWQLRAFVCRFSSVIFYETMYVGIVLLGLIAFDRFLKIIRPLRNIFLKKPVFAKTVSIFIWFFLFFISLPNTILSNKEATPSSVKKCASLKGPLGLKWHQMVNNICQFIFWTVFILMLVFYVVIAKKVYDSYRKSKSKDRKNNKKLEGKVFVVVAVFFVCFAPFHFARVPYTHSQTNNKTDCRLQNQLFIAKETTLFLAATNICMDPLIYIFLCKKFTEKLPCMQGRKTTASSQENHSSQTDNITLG

[12] = molecular target: T1, P2Y purinoceptor 1; assay: Inhibition of human P2Y1 assessed as inhibition constant
[13] = Cmax in mouse measured up to 24 hrs; type: ADME; parameters: time < 24 hrs; conditions: in vivo
[14] = Cmax in rat measured up to 24 hrs; type: ADME; parameters: time < 24 hrs; conditions: in vivo
[15] = in vivo; conditions: mouse, po
[16] = Binding affinity to chimpanzee P2Y14 assessed as inhibition constant; parameters: species or system Pan troglodytes
[17] = molecular target: T3, P2Y purinoceptor 4 (Homo sapiens, UniProt P51582); assay: Agonist activity at human P2Y4 transfected in human 1321N1 cells; type: cell-based
[18] = Half life in C57BL/6 mouse 2 mg/kg, iv; conditions: in vivo
[19] = Half life in C57BL/6 mouse 2 mg/kg, iv; type: ADME, organism-based; conditions: in vivo
[20] = Oral bioavailability in C57BL/6 mouse at 50 mg/kg; conditions: in vivo
[21] = molecular target: P2Y purinoceptor 6 (Homo sapiens, UniProt Q15077); assay: Antagonist activity at human P2Y6
[22] = molecular target: P2Y purinoceptor 4 (Rattus norvegicus) (UniProt O35811); assay: Agonist activity at rat P2Y4 transfected in human 1321N1 cells at 100 uM relative to control; type: cell-based
[23] = molecular target: T3, P2Y purinoceptor 4; assay: Agonist activity at human P2Y4 transfected in human 1321N1 cells at 100 uM relative to control; type: cell-based
[24] = molecular target: T4, P2Y purinoceptor 12 (Homo sapiens, UniProt Q9H244); assay: Antagonist activity at human P2Y12
[25] = Antagonist activity at P2Y14 using UDP-Glc as substrate
[26] = molecular target: T4, P2Y purinoceptor 12; assay: Displacement of [3H]-2-MeS-ADP from human P2Y12 assessed as inhibition constant incubated for 30 mins
[27] = molecular target: T2, P2Y purinoceptor 13; assay: Antagonist activity at P2Y13 (unknown origin)
[28] = molecular target: T1, P2Y purinoceptor 1; assay: Inhibition of human P2Y1
[29] = molecular target: T5, P2Y purinoceptor 14 (Rattus norvegicus, UniProt O35881); assay: Antagonist activity at rat P2Y14
T5 sequence (O35881 whole entry): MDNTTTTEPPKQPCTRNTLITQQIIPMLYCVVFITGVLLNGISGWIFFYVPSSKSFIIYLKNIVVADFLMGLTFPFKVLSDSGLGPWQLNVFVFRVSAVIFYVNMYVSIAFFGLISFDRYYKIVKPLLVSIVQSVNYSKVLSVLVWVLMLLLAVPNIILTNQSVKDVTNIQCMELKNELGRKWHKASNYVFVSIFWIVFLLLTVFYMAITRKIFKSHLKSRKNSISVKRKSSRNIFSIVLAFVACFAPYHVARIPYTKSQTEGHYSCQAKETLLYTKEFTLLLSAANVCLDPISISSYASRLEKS

[30] = Antagonist activity at ATP gamma S induced mucin in Normal human bronchial epithelial cell; type: cell-based
[31] = molecular target: P2Y purinoceptor 2 (Mus musculus, UniProt P35383); assay: Antagonist activity at mouse P2Y2
[32] = molecular target: P2Y purinoceptor 4 (Rattus norvegicus, UniProt O35811); assay: Agonist activity at rat P2Y4
[33] = molecular target: T3, P2Y purinoceptor 4
[34] = molecular target: T6, P2Y purinoceptor 14 (Homo sapiens, UniProt Q15391); assay: Antagonist activity at human P2Y14 expressed in CHO cells assessed as inhibition constant; type: cell-based
T6 sequence (Q15391 whole entry): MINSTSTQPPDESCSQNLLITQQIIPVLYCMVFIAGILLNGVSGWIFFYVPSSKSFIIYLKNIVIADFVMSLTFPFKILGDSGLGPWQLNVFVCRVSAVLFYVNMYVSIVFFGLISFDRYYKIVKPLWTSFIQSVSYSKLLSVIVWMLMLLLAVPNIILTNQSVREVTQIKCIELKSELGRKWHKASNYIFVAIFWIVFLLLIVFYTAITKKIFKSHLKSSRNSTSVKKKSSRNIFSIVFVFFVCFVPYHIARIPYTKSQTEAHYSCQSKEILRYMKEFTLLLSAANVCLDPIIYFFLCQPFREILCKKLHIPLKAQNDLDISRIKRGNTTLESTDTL

T1 sequence (P47900 whole entry): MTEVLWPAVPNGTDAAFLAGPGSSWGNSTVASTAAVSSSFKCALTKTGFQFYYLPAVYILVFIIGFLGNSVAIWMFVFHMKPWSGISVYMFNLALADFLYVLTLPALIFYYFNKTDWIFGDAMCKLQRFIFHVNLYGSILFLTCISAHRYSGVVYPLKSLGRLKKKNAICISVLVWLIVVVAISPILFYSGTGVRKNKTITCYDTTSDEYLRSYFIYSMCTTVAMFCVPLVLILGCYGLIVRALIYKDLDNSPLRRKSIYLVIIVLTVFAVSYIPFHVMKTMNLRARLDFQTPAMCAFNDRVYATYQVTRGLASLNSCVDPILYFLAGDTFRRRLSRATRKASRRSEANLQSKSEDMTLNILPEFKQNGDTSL
T4 sequence (Q9H244 whole entry): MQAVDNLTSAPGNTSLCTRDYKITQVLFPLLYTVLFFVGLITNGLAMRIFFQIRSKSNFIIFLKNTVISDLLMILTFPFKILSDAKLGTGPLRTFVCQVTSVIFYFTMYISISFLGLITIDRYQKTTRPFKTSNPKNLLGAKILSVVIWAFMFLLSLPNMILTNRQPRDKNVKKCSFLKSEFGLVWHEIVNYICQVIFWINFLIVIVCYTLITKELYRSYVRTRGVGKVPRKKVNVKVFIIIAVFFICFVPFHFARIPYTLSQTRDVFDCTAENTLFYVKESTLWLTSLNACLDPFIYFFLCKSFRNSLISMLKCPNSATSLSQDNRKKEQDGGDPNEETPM
T3 sequence (P51582 whole entry): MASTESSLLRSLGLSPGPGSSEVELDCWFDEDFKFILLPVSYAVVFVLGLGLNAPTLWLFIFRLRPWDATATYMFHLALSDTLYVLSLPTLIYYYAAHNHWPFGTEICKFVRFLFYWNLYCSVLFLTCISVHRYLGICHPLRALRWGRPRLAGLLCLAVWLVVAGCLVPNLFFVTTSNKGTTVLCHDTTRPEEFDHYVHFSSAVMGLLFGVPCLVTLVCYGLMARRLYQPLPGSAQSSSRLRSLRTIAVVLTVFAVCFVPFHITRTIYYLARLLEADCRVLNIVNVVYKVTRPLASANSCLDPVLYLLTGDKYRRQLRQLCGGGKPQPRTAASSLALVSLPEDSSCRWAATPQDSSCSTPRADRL
Sequence of P2Y purinoceptor 6 (Q15077 whole entry): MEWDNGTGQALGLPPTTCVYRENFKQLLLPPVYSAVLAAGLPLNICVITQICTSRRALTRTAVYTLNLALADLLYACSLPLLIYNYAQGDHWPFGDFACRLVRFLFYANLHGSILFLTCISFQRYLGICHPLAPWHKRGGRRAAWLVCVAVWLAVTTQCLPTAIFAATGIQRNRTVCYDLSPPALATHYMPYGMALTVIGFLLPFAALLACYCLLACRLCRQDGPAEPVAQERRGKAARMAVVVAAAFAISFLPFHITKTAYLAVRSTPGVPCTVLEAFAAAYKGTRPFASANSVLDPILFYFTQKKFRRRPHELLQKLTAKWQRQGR
Sequence of P2Y purinoceptor 4 (Rattus norvegicus, UniProt O35811) (O35811 whole entry): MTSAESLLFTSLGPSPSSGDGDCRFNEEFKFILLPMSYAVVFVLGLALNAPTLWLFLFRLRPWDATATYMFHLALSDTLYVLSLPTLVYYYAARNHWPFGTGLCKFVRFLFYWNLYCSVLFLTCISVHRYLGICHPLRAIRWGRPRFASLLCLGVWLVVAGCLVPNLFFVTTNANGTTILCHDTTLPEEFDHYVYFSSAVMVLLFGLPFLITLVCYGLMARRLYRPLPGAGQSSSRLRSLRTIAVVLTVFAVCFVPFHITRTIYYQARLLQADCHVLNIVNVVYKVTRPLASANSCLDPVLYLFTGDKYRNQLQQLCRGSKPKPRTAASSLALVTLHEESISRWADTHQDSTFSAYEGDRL
Sequence of P2Y purinoceptor 4 (Rattus norvegicus) (O35811 whole entry): as above
Sequence of P2Y purinoceptor 2 (P35383 whole entry): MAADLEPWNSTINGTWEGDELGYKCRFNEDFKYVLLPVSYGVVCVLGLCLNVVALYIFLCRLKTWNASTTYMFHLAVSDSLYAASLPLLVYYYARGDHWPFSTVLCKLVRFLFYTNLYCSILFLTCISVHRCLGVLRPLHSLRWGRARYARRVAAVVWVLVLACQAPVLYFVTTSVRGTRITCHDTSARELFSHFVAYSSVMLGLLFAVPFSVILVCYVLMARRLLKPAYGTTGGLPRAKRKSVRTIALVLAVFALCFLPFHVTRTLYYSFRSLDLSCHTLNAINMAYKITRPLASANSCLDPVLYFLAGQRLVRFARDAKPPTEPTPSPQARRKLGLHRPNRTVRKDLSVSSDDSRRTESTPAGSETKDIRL

Cc1cc(Oc2ccccc2NC(=O)Nc2ccc(OC(F)(F)F)cc2)n(-c2ccccc2Cl)n1
Vdss [1]: 15.7 L/kg | clearance [2]: 81 mL/min/kg

CC(C)(C)CN1CCC2(CC1)CN(c1ccccc1NC(=O)Nc1nc3ccc(Cl)nc3s1)c1c(O)cc(F)c(-c3ccc(F)cc3)c12
IC50 [3]: 180 nM | Vd ([1]; read-out: Vdss): 2.1 L/kg | clearance [2]: 4 mL/min/kg | bioavailability [4]: 30%

CCCCNc1nc(SCCC)nc2c1ncn2[C@@H]1O[C@H](/C=C/C(=O)N[C@@H](CC(=O)O)C(=O)O)[C@@H](O)[C@H]1O
pIC50 [5]: 7

CNc1nc(Cl)nc2c1ncn2CCC(COP(=O)(O)O)COP(=O)(O)O
IC50 [6]: 840 nM

CC(C)(C)c1ccccc1Oc1ncccc1NC(=O)Nc1ccc(OC(F)(F)F)cc1
Vdss [7]: 0.8 L/kg | half-life [8]: 15.4 h | half-life [9]: 1.4 h | CL/F [10]: 13 mL/min/kg

Cc1nc(/N=N/c2cc([N+](=O)[O-])ccc2Cl)c(COP(=O)(O)O)c(C=O)c1O
IC50 [11]: 1070 nM

Cc1cc(Oc2ccccc2NC(=O)Nc2ccc(C3CCS(=O)(=O)CC3)cc2)n(-c2ccccc2Cl)n1
Ki [12]: > 10000 nM

Nc1ncnc2c1ncn2[C@H]1C[C@H](OP(=O)(O)O)[C@@H](COP(=O)(O)O)O1
EC50 [6]: 6300 nM | IC50 [6]: 5800 nM

O=C(O)c1cc(-c2ccc(C3CCNCC3)cc2)c2ccc(-c3ccc(C(F)(F)F)cc3)cc2c1 [PPTN]
Cmax [13]: 2280 nM | Cmax [14]: 680 nM | bioavailability [15]: 5% | Ki [16]: 1.9 nM | bioavailability [4]: 5%

O=c1ccn([C@@H]2O[C@H](COP(=O)(O)OP(=O)(O)OP(=O)(O)O)[C@@H](O)[C@H]2O)c(=O)[nH]1 [URIDINE TRIPHOSPHATE]
EC50 [17]: 550 nM

Cc1cc(F)cc(C)c1COc1ccc2c(-c3ccsc3)cc(C(=O)O)cc2c1
half-life [18]: 2.7 h | half-life [19]: 2.7 h | bioavailability [20]: 12%

CCCCNc1nc(SCCC)nc2c1nnn2[C@@H]1C[C@H](/C=C/C(=O)N[C@@H](CC(=O)O)C(=O)O)[C@@H](O)[C@H]1O
pIC50 [5]: 9.3

CCc1ccccc1-n1nc(C)cc1Oc1ccccc1NC(=O)Nc1ccc(OC(F)(F)F)cc1
Ki [12]: 70 nM

S=C=Nc1ccc(CCc2ccc(N=C=S)cc2)cc1
IC50 [21]: 100 nM

Nc1ncnc2c1ncn2[C@@H]1O[C@H](COP(=O)(O)OP(=O)(O)O)[C@@H](O)[C@H]1O
Activity [22]: 34% | Activity [23]: 15%

S=C=Nc1cccc(NC(=S)NCCCCNC(=S)Nc2cccc(N=C=S)c2)c1
IC50 [21]: 37 nM

CCOC(=O)N1CCN(C(=O)[C@H](CCC(=O)O)NC(=O)c2cc(OC(C)(C)C(=O)OCC)c3ccc(C)cc3n2)CC1
IC50 [24]: 130 nM

CCOC(=O)N1CCN(C(=O)[C@H](CCC(=O)O)NC(=O)c2cc(OC(C)(C)C(=O)O)c3ccc(C)cc3n2)CC1
IC50 [24]: 8.3 nM

O=C(O)c1cc(-c2ccccc2)c2ccc(OCc3ccccc3)cc2c1
IC50 [25]: 3500 nM

CCCSc1nc(N[C@@H]2C[C@H]2c2ccccc2)c2nnn([C@@H]3C[C@H](c4nnn[nH]4)[C@@H](O)[C@H]3O)c2n1
Ki [26]: 2 nM

Cc1ccc(C(=O)Nc2ccc(S(=O)(=O)O)c3cc(S(=O)(=O)O)cc(S(=O)(=O)O)c23)cc1NC(=O)c1cccc(NC(=O)Nc2cccc(C(=O)Nc3cc(C(=O)Nc4ccc(S(=O)(=O)O)c5cc(S(=O)(=O)O)cc(S(=O)(=O)O)c45)ccc3C)c2)c1 [SURAMIN HEXASODIUM]
IC50 [27]: 2300 nM

CNc1ncnc2c1ncn2[C@H]1C[C@H](OP(=O)(O)O)[C@@H](COP(=O)(O)O)O1
IC50 [28]: 330 nM

O=c1ccn([C@@H]2O[C@H](COP(=O)(O)OP(=O)(O)O)[C@@H](O)[C@H]2O)c(=O)[nH]1 [URIDINE_DIPHOSPHATE]
EC50 [29]: 350 nM

Cc1ccc2c(c1)C=Cc1cc(C)ccc1C2c1cn(Cc2ccc(C(=O)Nc3nnn[nH]3)o2)c(=O)[nH]c1=S
IC50 [30]: 1000 nM

COc1ccc(-c2cc(=O)c3c(OC)c(OC)c(OC)c(OC)c3o2)cc1 [TANGERETIN]
IC50 [31]: 12000 nM

Nc1ncnc2c1ncn2[C@@H]1O[C@H](COP(=O)(O)OP(=O)(O)OP(=O)(O)O)[C@@H](O)[C@H]1O [ADENOSINE TRIPHOSPHATE]
EC50 [32]: 1170 nM | EC50 [33]: 6200 nM

Cc1nc(/N=N/c2ccc(S(=O)(=O)O)cc2S(=O)(=O)O)c(COP(=O)(O)O)c(C=O)c1O
IC50 [27]: 11600 nM

Cc1nc(/N=N/c2ccc(Cl)c([N+](=O)[O-])c2)c(COP(=O)(O)O)c(C=O)c1O
IC50 [11]: 661 nM

CC(=O)c1cc(C(=O)NCCCCCCn2cc(CCCCN3CCC(c4ccc(-c5cc(C(=O)O)cc6cc(-c7ccc(C(F)(F)F)cc7)ccc56)cc4)CC3)nn2)ccc1-c1c2ccc(=N)c(S(=O)(=O)O)c-2oc2c(S(=O)(=O)O)c(N)ccc12
Ki [34]: 0.08 nM

Nc1c(S(=O)(=O)O)cc(Nc2ccc(Nc3nc(Cl)nc(Nc4cccc(S(=O)(=O)O)c4)n3)c(S(=O)(=O)O)c2)c2c1C(=O)c1ccccc1C2=O [RB 2]
IC50 [27]: 1900 nM

CCCCNc1nc(SCCC)nc2c1nnn2[C@@H]1O[C@H](/C=C/C(=O)N[C@@H](CC(=O)O)C(=O)O)[C@@H](O)[C@H]1O
pIC50 [5]: 9.5
